# Laboratory results published in PubChem BioAssay (NCI).
#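 Compound exposure: 48 hours, 5 concentrations, 96-well plates. TGI: concentration producing complete growth inhibition.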
# Legend:
# Assay in all cases: NCI tumour cell line growth inhibition, 48 h
# 786-0 renal = tested on: 786-0 renal
# A498 renal = tested on: A498 renal
# A549 NSCLC = tested on: A549 NSCLC
# ACHN renal = tested on: ACHN renal
# CCRF-CEM leukemia = tested on: CCRF-CEM leukemia
# COLO 205 colon = tested on: COLO 205 colon
# DLD-1 colon = tested on: DLD-1 colon
# DMS 114 small cell lung = tested on: DMS 114 small cell lung
# DMS 273 small cell lung = tested on: DMS 273 small cell lung
# EKVX NSCLC = tested on: EKVX NSCLC
# HCC-2998 colon = tested on: HCC-2998 colon
# HCT-116 colon = tested on: HCT-116 colon
# HCT-15 colon = tested on: HCT-15 colon
# HL-60(TB) leukemia = tested on: HL-60(TB) leukemia
# HOP-18 NSCLC = tested on: HOP-18 NSCLC
# HOP-62 NSCLC = tested on: HOP-62 NSCLC
# HOP-92 NSCLC = tested on: HOP-92 NSCLC
# HT29 colon = tested on: HT29 colon
# IGROV1 ovarian = tested on: IGROV1 ovarian
# K-562 leukemia = tested on: K-562 leukemia
# KM12 colon = tested on: KM12 colon
# KM20L2 colon = tested on: KM20L2 colon
# LOX IMVI melanoma = tested on: LOX IMVI melanoma
# LXFL 529 NSCLC = tested on: LXFL 529 NSCLC
# M14 melanoma = tested on: M14 melanoma
# M19-MEL melanoma = tested on: M19-MEL melanoma
# MALME-3M melanoma = tested on: MALME-3M melanoma
# MOLT-4 leukemia = tested on: MOLT-4 leukemia
# NCI-H226 lung = tested on: NCI-H226 lung
# NCI-H23 lung = tested on: NCI-H23 lung
# NCI-H460 lung = tested on: NCI-H460 lung
# NCI-H522 lung = tested on: NCI-H522 lung
# OVCAR-3 ovarian = tested on: OVCAR-3 ovarian
# OVCAR-4 ovarian = tested on: OVCAR-4 ovarian
# OVCAR-5 ovarian = tested on: OVCAR-5 ovarian
# OVCAR-8 ovarian = tested on: OVCAR-8 ovarian
# RPMI-8226 leukemia = tested on: RPMI-8226 leukemia
# RXF 393 renal = tested on: RXF 393 renal
# SF-268 CNS = tested on: SF-268 CNS
# SF-295 CNS = tested on: SF-295 CNS
# SF-539 CNS = tested on: SF-539 CNS
# SK-MEL-2 melanoma = tested on: SK-MEL-2 melanoma
# SK-MEL-28 melanoma = tested on: SK-MEL-28 melanoma
# SK-MEL-5 melanoma = tested on: SK-MEL-5 melanoma
# SK-OV-3 ovarian = tested on: SK-OV-3 ovarian
# SN12C renal = tested on: SN12C renal
# SNB-19 CNS = tested on: SNB-19 CNS
# SNB-75 CNS = tested on: SNB-75 CNS
# SNB-78 CNS = tested on: SNB-78 CNS
# SR leukemia = tested on: SR leukemia
# SW-620 colon = tested on: SW-620 colon
# TK-10 renal = tested on: TK-10 renal
# U251 CNS = tested on: U251 CNS
# UACC-257 melanoma = tested on: UACC-257 melanoma
# UACC-62 melanoma = tested on: UACC-62 melanoma
# UO-31 renal = tested on: UO-31 renal
# XF 498 CNS = tested on: XF 498 CNS
# BT-549 breast = tested on: BT-549 breast
# CAKI-1 renal = tested on: CAKI-1 renal
# DU-145 prostate = tested on: DU-145 prostate
# HS 578T breast = tested on: HS 578T breast
# MCF7 breast = tested on: MCF7 breast
# MDA-MB-231 breast = tested on: MDA-MB-231 breast
# MDA-MB-435 = tested on: MDA-MB-435
# MDA-N = tested on: MDA-N
# NCI/ADR-RES ovarian = tested on: NCI/ADR-RES ovarian
# PC-3 prostate = tested on: PC-3 prostate
# T-47D breast = tested on: T-47D breast
smiles,measurement,setting,value
CS(=O)(=O)OCCCOS(C)(=O)=O,TGI,786-0 renal,> 100 µM
same,TGI,A498 renal,> 100 µM
same,TGI,A549 NSCLC,> 100 µM
same,TGI,ACHN renal,> 100 µM
same,TGI,CCRF-CEM leukemia,> 100 µM
same,TGI,COLO 205 colon,> 100 µM
same,TGI,DLD-1 colon,> 100 µM
same,TGI,DMS 114 small cell lung,> 100 µM
same,TGI,DMS 273 small cell lung,> 100 µM
same,TGI,EKVX NSCLC,> 100 µM
same,TGI,HCC-2998 colon,> 100 µM
same,TGI,HCT-116 colon,> 100 µM
same,TGI,HCT-15 colon,> 100 µM
same,TGI,HL-60(TB) leukemia,> 100 µM
same,TGI,HOP-18 NSCLC,> 100 µM
same,TGI,HOP-62 NSCLC,> 100 µM
same,TGI,HOP-92 NSCLC,> 100 µM
same,TGI,HT29 colon,> 100 µM
same,TGI,IGROV1 ovarian,> 100 µM
same,TGI,K-562 leukemia,> 100 µM
same,TGI,KM12 colon,> 100 µM
same,TGI,KM20L2 colon,> 100 µM
same,TGI,LOX IMVI melanoma,> 100 µM
same,TGI,LXFL 529 NSCLC,> 100 µM
same,TGI,M14 melanoma,> 100 µM
same,TGI,M19-MEL melanoma,> 100 µM
same,TGI,MALME-3M melanoma,> 100 µM
same,TGI,MOLT-4 leukemia,> 100 µM
same,TGI,NCI-H226 lung,> 100 µM
same,TGI,NCI-H23 lung,> 100 µM
same,TGI,NCI-H460 lung,> 100 µM
same,TGI,NCI-H522 lung,> 100 µM
same,TGI,OVCAR-3 ovarian,> 100 µM
same,TGI,OVCAR-4 ovarian,> 100 µM
same,TGI,OVCAR-5 ovarian,> 100 µM
same,TGI,OVCAR-8 ovarian,> 100 µM
same,TGI,RPMI-8226 leukemia,> 100 µM
same,TGI,RXF 393 renal,> 100 µM
same,TGI,SF-268 CNS,> 100 µM
same,TGI,SF-295 CNS,> 100 µM
same,TGI,SF-539 CNS,> 100 µM
same,TGI,SK-MEL-2 melanoma,> 100 µM
same,TGI,SK-MEL-28 melanoma,> 100 µM
same,TGI,SK-MEL-5 melanoma,> 100 µM
same,TGI,SK-OV-3 ovarian,> 100 µM
same,TGI,SN12C renal,> 100 µM
same,TGI,SNB-19 CNS,> 100 µM
same,TGI,SNB-75 CNS,> 100 µM
same,TGI,SNB-78 CNS,> 100 µM
same,TGI,SR leukemia,> 100 µM
same,TGI,SW-620 colon,> 100 µM
same,TGI,TK-10 renal,> 100 µM
same,TGI,U251 CNS,> 100 µM
same,TGI,UACC-257 melanoma,> 100 µM
same,TGI,UACC-62 melanoma,> 100 µM
same,TGI,UO-31 renal,> 100 µM
same,TGI,XF 498 CNS,> 100 µM
Clc1nc(Cl)c(CBr)c(Cl)n1,TGI,786-0 renal,5.18 µM
same,TGI,A498 renal,32.1 µM
same,TGI,A549 NSCLC,35.2 µM
same,TGI,ACHN renal,15.7 µM
same,TGI,BT-549 breast,4.17 µM
same,TGI,CAKI-1 renal,23.3 µM
same,TGI,CCRF-CEM leukemia,3.41 µM
same,TGI,COLO 205 colon,20.9 µM
same,TGI,DU-145 prostate,30.6 µM
same,TGI,EKVX NSCLC,48.9 µM
same,TGI,HCC-2998 colon,30.8 µM
same,TGI,HCT-116 colon,5.55 µM
same,TGI,HCT-15 colon,7.91 µM
same,TGI,HL-60(TB) leukemia,> 100 µM
same,TGI,HOP-62 NSCLC,9.72 µM
same,TGI,HOP-92 NSCLC,5.07 µM
same,TGI,HS 578T breast,> 56.8 µM
same,TGI,HT29 colon,32.9 µM
same,TGI,IGROV1 ovarian,14.1 µM
same,TGI,K-562 leukemia,> 23.5 µM
same,TGI,KM12 colon,7.87 µM
same,TGI,LOX IMVI melanoma,4.14 µM
same,TGI,M14 melanoma,8.38 µM
same,TGI,MALME-3M melanoma,28.7 µM
same,TGI,MCF7 breast,26 µM
same,TGI,MDA-MB-231 breast,4.04 µM
same,TGI,MDA-MB-435,17 µM
same,TGI,MDA-N,13.2 µM
same,TGI,MOLT-4 leukemia,> 23 µM
same,TGI,NCI-H226 lung,> 51.7 µM
same,TGI,NCI-H23 lung,31.2 µM
same,TGI,NCI-H460 lung,18.5 µM
same,TGI,NCI-H522 lung,2.92 µM
same,TGI,NCI/ADR-RES ovarian,> 43.2 µM
same,TGI,OVCAR-3 ovarian,13.3 µM
same,TGI,OVCAR-4 ovarian,19.7 µM
same,TGI,OVCAR-5 ovarian,15 µM
same,TGI,OVCAR-8 ovarian,10.2 µM
same,TGI,PC-3 prostate,17.7 µM
same,TGI,RPMI-8226 leukemia,4.06 µM
same,TGI,RXF 393 renal,21.4 µM
same,TGI,SF-268 CNS,23.1 µM
same,TGI,SF-295 CNS,16.1 µM
same,TGI,SF-539 CNS,7.76 µM
same,TGI,SK-MEL-2 melanoma,43.1 µM
same,TGI,SK-MEL-28 melanoma,19.9 µM
same,TGI,SK-MEL-5 melanoma,8.46 µM
same,TGI,SK-OV-3 ovarian,29 µM
same,TGI,SN12C renal,6.79 µM
same,TGI,SNB-19 CNS,33.3 µM
same,TGI,SNB-75 CNS,24.8 µM
same,TGI,SR leukemia,> 100 µM
same,TGI,SW-620 colon,3.99 µM
same,TGI,T-47D breast,36.1 µM
same,TGI,TK-10 renal,16.9 µM
same,TGI,U251 CNS,14.6 µM
same,TGI,UACC-257 melanoma,33.9 µM
same,TGI,UACC-62 melanoma,11.4 µM
same,TGI,UO-31 renal,9.01 µM
CC(C)(C)[C@H]1CCC2(OCCO2)[C@](O)(CCCO)C1,TGI,786-0 renal,> 100 µM
same,TGI,A498 renal,> 100 µM
same,TGI,A549 NSCLC,> 100 µM
same,TGI,ACHN renal,> 100 µM
same,TGI,BT-549 breast,> 100 µM
same,TGI,CAKI-1 renal,> 100 µM
same,TGI,CCRF-CEM leukemia,> 100 µM
same,TGI,COLO 205 colon,> 100 µM
same,TGI,DU-145 prostate,> 100 µM
same,TGI,EKVX NSCLC,> 100 µM
same,TGI,HCC-2998 colon,> 100 µM
same,TGI,HCT-116 colon,> 100 µM
same,TGI,HCT-15 colon,> 100 µM
same,TGI,HL-60(TB) leukemia,> 100 µM
same,TGI,HOP-62 NSCLC,> 100 µM
same,TGI,HOP-92 NSCLC,> 100 µM
same,TGI,HS 578T breast,> 100 µM
same,TGI,HT29 colon,> 100 µM
same,TGI,IGROV1 ovarian,> 100 µM
same,TGI,K-562 leukemia,> 100 µM
same,TGI,KM12 colon,> 100 µM
same,TGI,LOX IMVI melanoma,> 100 µM
same,TGI,M14 melanoma,> 100 µM
same,TGI,MALME-3M melanoma,> 100 µM
same,TGI,MCF7 breast,> 100 µM
same,TGI,MDA-MB-231 breast,> 100 µM
same,TGI,MDA-MB-435,> 100 µM
same,TGI,MDA-N,> 100 µM
same,TGI,MOLT-4 leukemia,> 100 µM
same,TGI,NCI-H226 lung,> 100 µM
same,TGI,NCI-H23 lung,> 100 µM
same,TGI,NCI-H460 lung,> 100 µM
same,TGI,NCI-H522 lung,> 100 µM
same,TGI,NCI/ADR-RES ovarian,> 100 µM
same,TGI,OVCAR-3 ovarian,> 100 µM
same,TGI,OVCAR-4 ovarian,> 100 µM
same,TGI,OVCAR-5 ovarian,> 100 µM
same,TGI,OVCAR-8 ovarian,> 100 µM
same,TGI,PC-3 prostate,> 100 µM
same,TGI,RPMI-8226 leukemia,> 100 µM
same,TGI,RXF 393 renal,> 100 µM
same,TGI,SF-268 CNS,> 100 µM
same,TGI,SF-295 CNS,> 100 µM
same,TGI,SF-539 CNS,> 100 µM
same,TGI,SK-MEL-2 melanoma,> 100 µM
same,TGI,SK-MEL-28 melanoma,> 100 µM
same,TGI,SK-MEL-5 melanoma,> 100 µM
same,TGI,SK-OV-3 ovarian,> 100 µM
same,TGI,SN12C renal,> 100 µM
same,TGI,SNB-19 CNS,> 100 µM
same,TGI,SNB-75 CNS,> 100 µM
same,TGI,SR leukemia,> 100 µM
same,TGI,SW-620 colon,> 100 µM
same,TGI,T-47D breast,> 100 µM
same,TGI,TK-10 renal,> 100 µM
same,TGI,U251 CNS,> 100 µM
same,TGI,UACC-257 melanoma,> 100 µM
same,TGI,UACC-62 melanoma,> 100 µM
same,TGI,UO-31 renal,> 100 µM
